In US11684607B2, “Secnidazole for use in the treatment of bacterial vaginosis” (priority 2014, dated 2023):

System: bacterial vaginosis
Experiment: Telephone diary questionnaire on vaginal discharge and odor (five point scale), mITT population
Assay type: in vivo, human
Conditions: for proportion of women reporting 3-5 for vaginal discharge / proportion of women reporting 3-5 for vaginal odor / proportion of women reporting 4-5 for vaginal discharge / proportion of women reporting 4-5 for vaginal odor: 2 g dose; for Discharge 1 point (Normal/Not an Issue): number of women / Discharge 1 point (Normal/Not an Issue): proportion of women / Discharge 2 points (Mildly Abnormal): number of women / Discharge 2 points (Mildly Abnormal): proportion of women / Discharge 3 points (Moderately Abnormal): number of women / Discharge 3 points (Moderately Abnormal): proportion of women / Discharge 4 points (Severely Abnormal): number of women / Discharge 4 points (Severely Abnormal): proportion of women / Discharge 5 points (Very Severely Abnormal): number of women / Discharge 5 points (Very Severely Abnormal): proportion of women / Odor 1 point (Normal/Not an Issue): number of women / Odor 1 point (Normal/Not an Issue): proportion of women / Odor 2 points (Mildly Abnormal): number of women / Odor 2 points (Mildly Abnormal): proportion of women / Odor 3 points (Moderately Abnormal): number of women / Odor 3 points (Moderately Abnormal): proportion of women / Odor 4 points (Severely Abnormal): number of women / Odor 4 points (Severely Abnormal): proportion of women / Odor 5 points (Very Severely Abnormal): number of women / Odor 5 points (Very Severely Abnormal): proportion of women: 2 g

Structure (SMILES): Cc1ncc([N+](=O)[O-])n1CC(C)O (stereo not shown) [SYM-1219, 1-(2-hydroxypropyl)-2-methyl-5-nitromidazole]
- proportion of women reporting 3-5 for vaginal discharge (day 1): 59%
- proportion of women reporting 3-5 for vaginal odor (day 1): 66%
- proportion of women reporting 4-5 for vaginal discharge (day 1): 36%
- proportion of women reporting 4-5 for vaginal odor (day 1): 38%
- proportion of women reporting 3-5 for vaginal discharge (day 3 (~48 hours)): 30%
- proportion of women reporting 3-5 for vaginal odor (day 3 (~48 hours)): 20%
- proportion of women reporting 4-5 for vaginal discharge (day 3 (~48 hours)): 11%
- proportion of women reporting 4-5 for vaginal odor (day 3 (~48 hours)): 9%
- proportion of women reporting 3-5 for vaginal discharge (day 7): 14%
- proportion of women reporting 3-5 for vaginal odor (day 7): 9%
- proportion of women reporting 4-5 for vaginal discharge (day 7): 0%
- proportion of women reporting 4-5 for vaginal odor (day 7): 0%
- Discharge 1 point (Normal/Not an Issue): number of women (Day 1): 6
- Discharge 1 point (Normal/Not an Issue): proportion of women (Day 1): 10%
- Discharge 2 points (Mildly Abnormal): number of women (Day 1): 18
- Discharge 2 points (Mildly Abnormal): proportion of women (Day 1): 31%
- Discharge 3 points (Moderately Abnormal): number of women (Day 1): 13
- Discharge 3 points (Moderately Abnormal): proportion of women (Day 1): 22%
- Discharge 4 points (Severely Abnormal): number of women (Day 1): 17
- Discharge 4 points (Severely Abnormal): proportion of women (Day 1): 29%
- Discharge 5 points (Very Severely Abnormal): number of women (Day 1): 4
- Discharge 5 points (Very Severely Abnormal): proportion of women (Day 1): 7%
- Odor 1 point (Normal/Not an Issue): number of women (Day 1): 8
- Odor 1 point (Normal/Not an Issue): proportion of women (Day 1): 14%
- Odor 2 points (Mildly Abnormal): number of women (Day 1): 12
- Odor 2 points (Mildly Abnormal): proportion of women (Day 1): 21%
- Odor 3 points (Moderately Abnormal): number of women (Day 1): 16
- Odor 3 points (Moderately Abnormal): proportion of women (Day 1): 28%
- Odor 4 points (Severely Abnormal): number of women (Day 1): 17
- Odor 4 points (Severely Abnormal): proportion of women (Day 1): 29%
- Odor 5 points (Very Severely Abnormal): number of women (Day 1): 5
- Odor 5 points (Very Severely Abnormal): proportion of women (Day 1): 9%
- Discharge 1 point (Normal/Not an Issue): number of women (Day 2): 9
- Discharge 1 point (Normal/Not an Issue): proportion of women (Day 2): 17%
- Discharge 2 points (Mildly Abnormal): number of women (Day 2): 20
- Discharge 2 points (Mildly Abnormal): proportion of women (Day 2): 38%
- Discharge 3 points (Moderately Abnormal): number of women (Day 2): 15
- Discharge 3 points (Moderately Abnormal): proportion of women (Day 2): 29%
- Discharge 4 points (Severely Abnormal): number of women (Day 2): 3
- Discharge 4 points (Severely Abnormal): proportion of women (Day 2): 6%
- Discharge 5 points (Very Severely Abnormal): number of women (Day 2): 5
- Discharge 5 points (Very Severely Abnormal): proportion of women (Day 2): 10%
- Odor 1 point (Normal/Not an Issue): number of women (Day 2): 10
- Odor 1 point (Normal/Not an Issue): proportion of women (Day 2): 19%
- Odor 2 points (Mildly Abnormal): number of women (Day 2): 23
- Odor 2 points (Mildly Abnormal): proportion of women (Day 2): 44%
- Odor 3 points (Moderately Abnormal): number of women (Day 2): 10
- Odor 3 points (Moderately Abnormal): proportion of women (Day 2): 19%
- Odor 4 points (Severely Abnormal): number of women (Day 2): 8
- Odor 4 points (Severely Abnormal): proportion of women (Day 2): 15%
- Odor 5 points (Very Severely Abnormal): number of women (Day 2): 1
- Odor 5 points (Very Severely Abnormal): proportion of women (Day 2): 2%
- Discharge 1 point (Normal/Not an Issue): number of women (Day 3): 13
- Discharge 1 point (Normal/Not an Issue): proportion of women (Day 3): 24%
- Discharge 2 points (Mildly Abnormal): number of women (Day 3): 25
- Discharge 2 points (Mildly Abnormal): proportion of women (Day 3): 46%
- Discharge 3 points (Moderately Abnormal): number of women (Day 3): 10
- Discharge 3 points (Moderately Abnormal): proportion of women (Day 3): 19%
- Discharge 4 points (Severely Abnormal): number of women (Day 3): 3
- Discharge 4 points (Severely Abnormal): proportion of women (Day 3): 6%
- Discharge 5 points (Very Severely Abnormal): number of women (Day 3): 3
- Discharge 5 points (Very Severely Abnormal): proportion of women (Day 3): 6%
- Odor 1 point (Normal/Not an Issue): number of women (Day 3): 20
- Odor 1 point (Normal/Not an Issue): proportion of women (Day 3): 37%
- Odor 2 points (Mildly Abnormal): number of women (Day 3): 23
- Odor 2 points (Mildly Abnormal): proportion of women (Day 3): 43%
- Odor 3 points (Moderately Abnormal): number of women (Day 3): 6
- Odor 3 points (Moderately Abnormal): proportion of women (Day 3): 11%
- Odor 4 points (Severely Abnormal): number of women (Day 3): 4
- Odor 4 points (Severely Abnormal): proportion of women (Day 3): 7%
- Odor 5 points (Very Severely Abnormal): number of women (Day 3): 1
- Odor 5 points (Very Severely Abnormal): proportion of women (Day 3): 2%
- Discharge 1 point (Normal/Not an Issue): number of women (Day 4): 19
- Discharge 1 point (Normal/Not an Issue): proportion of women (Day 4): 35%
- Discharge 2 points (Mildly Abnormal): number of women (Day 4): 22
- Discharge 2 points (Mildly Abnormal): proportion of women (Day 4): 40%
- Discharge 3 points (Moderately Abnormal): number of women (Day 4): 8
- Discharge 3 points (Moderately Abnormal): proportion of women (Day 4): 15%
- Discharge 4 points (Severely Abnormal): number of women (Day 4): 5
- Discharge 4 points (Severely Abnormal): proportion of women (Day 4): 9%
- Discharge 5 points (Very Severely Abnormal): number of women (Day 4): 1
- Discharge 5 points (Very Severely Abnormal): proportion of women (Day 4): 2%
- Odor 1 point (Normal/Not an Issue): number of women (Day 4): 27
- Odor 1 point (Normal/Not an Issue): proportion of women (Day 4): 49%
- Odor 2 points (Mildly Abnormal): number of women (Day 4): 18
- Odor 2 points (Mildly Abnormal): proportion of women (Day 4): 33%
- Odor 3 points (Moderately Abnormal): number of women (Day 4): 6
- Odor 3 points (Moderately Abnormal): proportion of women (Day 4): 11%
- Odor 4 points (Severely Abnormal): number of women (Day 4): 4
- Odor 4 points (Severely Abnormal): proportion of women (Day 4): 7%
- Odor 5 points (Very Severely Abnormal): number of women (Day 4): 0
- Odor 5 points (Very Severely Abnormal): proportion of women (Day 4): 0%
- Discharge 1 point (Normal/Not an Issue): number of women (Day 5): 21
- Discharge 1 point (Normal/Not an Issue): proportion of women (Day 5): 43%
- Discharge 2 points (Mildly Abnormal): number of women (Day 5): 17
- Discharge 2 points (Mildly Abnormal): proportion of women (Day 5): 35%
- Discharge 3 points (Moderately Abnormal): number of women (Day 5): 4
- Discharge 3 points (Moderately Abnormal): proportion of women (Day 5): 8%
- Discharge 4 points (Severely Abnormal): number of women (Day 5): 6
- Discharge 4 points (Severely Abnormal): proportion of women (Day 5): 12%
- Discharge 5 points (Very Severely Abnormal): number of women (Day 5): 1
- Discharge 5 points (Very Severely Abnormal): proportion of women (Day 5): 2%
- Odor 1 point (Normal/Not an Issue): number of women (Day 5): 28
- Odor 1 point (Normal/Not an Issue): proportion of women (Day 5): 58%
- Odor 2 points (Mildly Abnormal): number of women (Day 5): 12
- Odor 2 points (Mildly Abnormal): proportion of women (Day 5): 25%
- Odor 3 points (Moderately Abnormal): number of women (Day 5): 5
- Odor 3 points (Moderately Abnormal): proportion of women (Day 5): 10%
- Odor 4 points (Severely Abnormal): number of women (Day 5): 3
- Odor 4 points (Severely Abnormal): proportion of women (Day 5): 6%
- Odor 5 points (Very Severely Abnormal): number of women (Day 5): 0
- Odor 5 points (Very Severely Abnormal): proportion of women (Day 5): 0%
- Discharge 1 point (Normal/Not an Issue): number of women (Day 6): 22
- Discharge 1 point (Normal/Not an Issue): proportion of women (Day 6): 47%
- Discharge 2 points (Mildly Abnormal): number of women (Day 6): 15
- Discharge 2 points (Mildly Abnormal): proportion of women (Day 6): 32%
- Discharge 3 points (Moderately Abnormal): number of women (Day 6): 7
- Discharge 3 points (Moderately Abnormal): proportion of women (Day 6): 15%
- Discharge 4 points (Severely Abnormal): number of women (Day 6): 2
- Discharge 4 points (Severely Abnormal): proportion of women (Day 6): 4%
- Discharge 5 points (Very Severely Abnormal): number of women (Day 6): 1
- Discharge 5 points (Very Severely Abnormal): proportion of women (Day 6): 2%
- Odor 1 point (Normal/Not an Issue): number of women (Day 6): 29
- Odor 1 point (Normal/Not an Issue): proportion of women (Day 6): 62%
- Odor 2 points (Mildly Abnormal): number of women (Day 6): 12
- Odor 2 points (Mildly Abnormal): proportion of women (Day 6): 26%
- Odor 3 points (Moderately Abnormal): number of women (Day 6): 5
- Odor 3 points (Moderately Abnormal): proportion of women (Day 6): 11%
- Odor 4 points (Severely Abnormal): number of women (Day 6): 1
- Odor 4 points (Severely Abnormal): proportion of women (Day 6): 2%
- Odor 5 points (Very Severely Abnormal): number of women (Day 6): 0
- Odor 5 points (Very Severely Abnormal): proportion of women (Day 6): 0%
- Discharge 1 point (Normal/Not an Issue): number of women (Day 7): 24
- Discharge 1 point (Normal/Not an Issue): proportion of women (Day 7): 55%
- Discharge 2 points (Mildly Abnormal): number of women (Day 7): 14
- Discharge 2 points (Mildly Abnormal): proportion of women (Day 7): 32%
- Discharge 3 points (Moderately Abnormal): number of women (Day 7): 6
- Discharge 3 points (Moderately Abnormal): proportion of women (Day 7): 14%
- Discharge 4 points (Severely Abnormal): number of women (Day 7): 0
- Discharge 4 points (Severely Abnormal): proportion of women (Day 7): 0%
- Discharge 5 points (Very Severely Abnormal): number of women (Day 7): 0
- Discharge 5 points (Very Severely Abnormal): proportion of women (Day 7): 0%
- Odor 1 point (Normal/Not an Issue): number of women (Day 7): 33
- Odor 1 point (Normal/Not an Issue): proportion of women (Day 7): 75%
- Odor 2 points (Mildly Abnormal): number of women (Day 7): 7
- Odor 2 points (Mildly Abnormal): proportion of women (Day 7): 16%
- Odor 3 points (Moderately Abnormal): number of women (Day 7): 4
- Odor 3 points (Moderately Abnormal): proportion of women (Day 7): 9%
- Odor 4 points (Severely Abnormal): number of women (Day 7): 0
- Odor 4 points (Severely Abnormal): proportion of women (Day 7): 0%
- Odor 5 points (Very Severely Abnormal): number of women (Day 7): 0
- Odor 5 points (Very Severely Abnormal): proportion of women (Day 7): 0%
- Discharge 1 point (Normal/Not an Issue): number of women (EOS): 36
- Discharge 1 point (Normal/Not an Issue): proportion of women (EOS): 68%
- Discharge 2 points (Mildly Abnormal): number of women (EOS): 9
- Discharge 2 points (Mildly Abnormal): proportion of women (EOS): 17%
- Discharge 3 points (Moderately Abnormal): number of women (EOS): 4
- Discharge 3 points (Moderately Abnormal): proportion of women (EOS): 8%
- Discharge 4 points (Severely Abnormal): number of women (EOS): 3
- Discharge 4 points (Severely Abnormal): proportion of women (EOS): 6%
- Discharge 5 points (Very Severely Abnormal): number of women (EOS): 1
- Discharge 5 points (Very Severely Abnormal): proportion of women (EOS): 2%
- Odor 1 point (Normal/Not an Issue): number of women (EOS): 36
- Odor 1 point (Normal/Not an Issue): proportion of women (EOS): 69%
- Odor 2 points (Mildly Abnormal): number of women (EOS): 7
- Odor 2 points (Mildly Abnormal): proportion of women (EOS): 13%
- Odor 3 points (Moderately Abnormal): number of women (EOS): 9
- Odor 3 points (Moderately Abnormal): proportion of women (EOS): 17%
- Odor 4 points (Severely Abnormal): number of women (EOS): 0
- Odor 4 points (Severely Abnormal): proportion of women (EOS): 0%
- Odor 5 points (Very Severely Abnormal): number of women (EOS): 0
- Odor 5 points (Very Severely Abnormal): proportion of women (EOS): 0%
